Series [1] can be described thus: Activated partial thromboplastin time (APTT) in platelet-poor plasma. It is filed as in vivo, Japanese white rabbits. Conditions: vs control group; EPA-E 300 mg/kg oral 4 weeks, clopidogrel 20 mg/kg single oral dose. How it is done:
(§1) After the preliminary keeping, the rabbits were randomly divided into four groups, namely, control group, EPA-E group, clopidogrel group, and combination group. To the EPA-E group and the combination group, EPA-E was orally administered once a day for four weeks at a dose of 300 mg/kg. To the control group and the clopidogrel group, a 5% aqueous solution of gum arabic was orally administered instead of EPA-E. After the last EPA-E or gum arabic administration, the rabbits were fasted overnight, then clopidogrel was orally administered to the clopidogrel group and the combination group at a single dose of 20 mg/kg. […] Two hours after the clopidogrel administration, blood was sampled using a syringe containing citric acid in an amount of a tenth of the syringe volume, and the white blood cell count, red blood cell count, hemoglobin, hematocrit, and platelet count were measured on an automated hematology analyzer (type F-820 from Sysmex Corporation). […] The platelet aggregation activity was evaluated on the basis of maximum aggregation rate, and the suppressibility of platelet aggregation was calculated according to the following equation. Platelet-poor plasma (PPP) was measured in terms of prothrombin time (PT) and activated partial thromboplastin time (APTT) as coagulation-related parameters. […]

Series [2] in a line: Bleeding time, ear puncture wound (method of Elg et al.). It is filed as in vivo, Japanese white rabbits. To be noted: rabbit ear puncture; EPA-E 300 mg/kg oral 4 weeks, clopidogrel 20 mg/kg single oral dose.
For series [3], the system named is platelet aggregation induced by collagen. Put plainly: Collagen-induced platelet aggregation in PRP of orally dosed rabbits (ex vivo). Further details: species or system Japanese white rabbits. To be noted: collagen 6 μg/mL, clopidogrel 20 mg/kg single oral dose; for Effect on maximum aggregation rate: EPA-E 300 mg/kg oral 4 weeks; for Aggregation suppressibility: EPA-E 300 mg/kg oral once a day 4 weeks, blood 2 h after clopidogrel. Here is the method:
(§2) After the preliminary keeping, the rabbits were randomly divided into four groups, namely, control group, EPA-E group, clopidogrel group, and combination group. To the EPA-E group and the combination group, EPA-E was orally administered once a day for four weeks at a dose of 300 mg/kg. To the control group and the clopidogrel group, a 5% aqueous solution of gum arabic was orally administered instead of EPA-E. After the last EPA-E or gum arabic administration, the rabbits were fasted overnight, then clopidogrel was orally administered to the clopidogrel group and the combination group at a single dose of 20 mg/kg. To the control group and the EPA-E group, the 5% aqueous solution of gum arabic was orally administered instead of clopidogrel. Two hours after the clopidogrel administration, blood was sampled using a syringe containing citric acid in an amount of a tenth of the syringe volume, and the white blood cell count, red blood cell count, hemoglobin, hematocrit, and platelet count were measured on an automated hematology analyzer (type F-820 from Sysmex Corporation). The blood was centrifuged (at 150×g and at room temperature for 15 minutes) immediately after the above measurement to obtain platelet-rich plasma (PRP). The PRP was further centrifuged (at 1,500×g and at room temperature for 15 minutes) to collect platelet-poor plasma (PPP), and the platelet count was regulated with the PRP and PPP so that it might be […] (final level). The PRP was kept at 37° C. for four minutes, then an ADP (adenosine 5′-diphosphate) solution with a final concentration of 3 μM (MC Medical, Inc.) or a collagen solution with a final concentration of 6 μg/mL (Nycomed) was added thereto as an aggregation inducer so as to observe platelet aggregation using a platelet aggregation analyzer (MCM HEMA TRACER 313M from MC Medical, Inc.). The platelet aggregation activity was evaluated on the basis of maximum aggregation rate, and the suppressibility of platelet aggregation was calculated according to the following equation.
(§3) Aggregation suppressibility (%)={[maximum aggregation rate (mean) in control group]−[maximum aggregation rate (mean) in experimental group]}/[maximum aggregation rate (mean) in control group]×100.
(§4) The measurement results set forth for each group are each the mean of the values obtained in 8 or 9 cases plus/minus a standard error. The results were compared between the groups using the Tukey-Kramer method for multiple comparison testing, and the statistical significance was confirmed below a set level of 5%.

Series [4] has as its system platelet aggregation induced by ADP. Put plainly: ADP-induced platelet aggregation in PRP of orally dosed rabbits (ex vivo). Further details: species or system Japanese white rabbits. To be noted: ADP 3 μM, clopidogrel 20 mg/kg single oral dose; for Aggregation suppressibility: EPA-E 300 mg/kg oral once a day 4 weeks, blood 2 h after clopidogrel; for Effect on maximum aggregation rate: vs control group, EPA-E 300 mg/kg oral 4 weeks. Here is the method: as §2, §3, §4

Series [5] in a line: Prothrombin time (PT) in platelet-poor plasma. It is filed as in vivo, Japanese white rabbits. To be noted: vs control group; EPA-E 300 mg/kg oral 4 weeks, clopidogrel 20 mg/kg single oral dose. How it is done: as §1
A short description of series [6]: Hematological parameters on automated hematology analyzer. The series is classed as in vivo, Japanese white rabbits. Conditions: for Hematocrit / Hemoglobin / Platelet count / Red blood cell count / White blood cell count: mean ± standard error, blood 2 h after clopidogrel, EPA-E 300 mg/kg 4 weeks, clopidogrel 20 mg/kg; for Change of white blood cell count, red blood cell count, hemoglobin, hematocrit and platelet count: vs control group. How it is done:
After the preliminary keeping, the rabbits were randomly divided into four groups, namely, control group, EPA-E group, clopidogrel group, and combination group. To the EPA-E group and the combination group, EPA-E was orally administered once a day for four weeks at a dose of 300 mg/kg. To the control group and the clopidogrel group, a 5% aqueous solution of gum arabic was orally administered instead of EPA-E. After the last EPA-E or gum arabic administration, the rabbits were fasted overnight, then clopidogrel was orally administered to the clopidogrel group and the combination group at a single dose of 20 mg/kg. To the control group and the EPA-E group, the 5% aqueous solution of gum arabic was orally administered instead of clopidogrel. Two hours after the clopidogrel administration, blood was sampled using a syringe containing citric acid in an amount of a tenth of the syringe volume, and the white blood cell count, red blood cell count, hemoglobin, hematocrit, and platelet count were measured on an automated hematology analyzer (type F-820 from Sysmex Corporation). The blood was centrifuged (at 150×g and at room temperature for 15 minutes) immediately after the above measurement to obtain platelet-rich plasma (PRP). […] The platelet aggregation activity was evaluated on the basis of maximum aggregation rate, and the suppressibility of platelet aggregation was calculated according to the following equation. The measurement results set forth for each group are each the mean of the values obtained in 8 or 9 cases plus/minus a standard error. The results were compared between the groups using the Tukey-Kramer method for multiple comparison testing, and the statistical significance was confirmed below a set level of 5%.

Data on 2 molecules can be found in US20100113506A1, “COMPOSITION FOR PREVENTING OR TREATING THROMBUS- OR EMBOLUS- ASSOCIATED DISEASE” (priority 2007, published 2010).

Each structure is given as a SMILES string.

Consider `CC/C=C\C/C=C\C/C=C\C/C=C\C/C=C\CCCC(=O)OCC` [EPA-E, ethyl icosapentate], for which the “APTT (activated partial thromboplastin time) change” value in series [1] is listed as “neither PT (prothrombin time) nor APTT (activated partial thromboplastin time) had a statistically significant change”. Moreover, the “Effect on bleeding time” value in series [2] is “had no influence on the bleeding time”. For the same molecule, in series [3], the “Effect on maximum aggregation rate” value is given as “reduced the maximum aggregation rate significantly in a statistical sense” and the Aggregation suppressibility came out at 29%. For the same molecule, in series [4], the Aggregation suppressibility worked out at 0% and the “Effect on maximum aggregation rate” value was “had no influence on the maximum aggregation rate”. Besides, in series [5], the “PT (prothrombin time) change” value is recorded as “neither PT (prothrombin time) nor APTT (activated partial thromboplastin time) had a statistically significant change”. In addition, in series [6], the Hematocrit worked out at 37.3 ± 0.6%, the Hemoglobin was determined as 13.1 ± 0.2 g/dL, the Platelet count was 30.4 ± 1.2 ×10^4/μL and the “Red blood cell count” value is reported as 563 ± 10 ×10^4/μL. In addition, in series [6], the “White blood cell count” value is listed as 58.8 ± 5.2 ×10^2/μL; the “Change of white blood cell count, red blood cell count, hemoglobin, hematocrit and platelet count” value was “had not a statistically significant change”.

For the molecule `COC(=O)[C@H](c1ccccc1Cl)N1CCc2sccc2C1` [clopidogrel, (+)-(s)-methyl 2-(2-chlorophenyl)-2-(4,5,6,7-tetrahydrothieno[3,2-c]pyridin-5-yl) acetate monosulfate], in series [1], the “APTT (activated partial thromboplastin time) change” value was “neither PT (prothrombin time) nor APTT (activated partial thromboplastin time) had a statistically significant change”. Moreover, the “Effect on bleeding time” value in series [2] is on record as “prolonged the bleeding time significantly in a statistical sense”. In addition, in series [3], the “Effect on maximum aggregation rate” value is on record as “no differences were seen which were statistically significant” and the Aggregation suppressibility is reported as 7%. In addition, in series [4], the Aggregation suppressibility is on record as 29% and the “Effect on maximum aggregation rate” value was “reduced the maximum aggregation rate”. Further, in series [5], the “PT (prothrombin time) change” value is on record as “neither PT (prothrombin time) nor APTT (activated partial thromboplastin time) had a statistically significant change”. Further, in series [6], the Hematocrit was determined as 39.3 ± 1.2%, the Hemoglobin is listed as 13.8 ± 0.4 g/dL, the Platelet count is listed as 38.0 ± 2.3 ×10^4/μL and the “Red blood cell count” value is on record as 584 ± 17 ×10^4/μL. Also, in series [6], the “White blood cell count” value is 58.0 ± 4.8 ×10^2/μL; the “Change of white blood cell count, red blood cell count, hemoglobin, hematocrit and platelet count” value is recorded as “had not a statistically significant change”.
